# “Also recorded” adds a separate entry of the source. Like-named read-outs stand apart in the source and are kept apart here.
# Legend:
# 3T3L1 adipocyte cells = assay: Glucose transport (3H-deoxyglucose uptake) in 3T3L1 adipocyte cells; type: cell-based, mouse
# Procedure: Glucose transport was determined using a modification of the method of S. J. Isakoff et at. (23). The assay involved measuring the effect of compounds on the uptake of ^3H-deoxyglucose into 3T3L1 adipocyte cells.
# The cell line, 3T3-L1, derived from mouse embryo fibroblasts, was grown in 250 mL tissue culture flasks containing 15 mL medium made up of DMEM (Dulbecco's modified Eagle's medium containing glutamine, 2 mM; sodium bicarbonate, 30 mM; penicillin 71.5 mg/litre; streptomycin, 152.5 mg/litre) supplemented with 10% foetal calf serum (FCS), pH 7.4. Cells were maintained in a humidified incubator at 37° C. in a 5% CO2 environment. The medium was changed every 3 days and the cells were split when they were about 70-80% confluent.
# 3T3-L1 fibroblast cells from one tissue culture flask were suspended in 50 mL of DMEM media containing 10% FCS and 0.5 mL of this suspension were seeded into each well of two 48-well tissue culture plates. The differentiation of the cells was initiated when the fibroblast cells were fully confluent. Routinely, differentiation was induced on cells that had been growing in tissue culture plates for 4-5 days. […] The cells were subsequently maintained with DMEM medium containing 10% FCS.
# One day prior to the glucose transport assay, cell medium was replaced with DMEM containing 10% charcoal-treated foetal calf serum (CTFCS). On the day of the assay, the medium was aspirated and each well was washed with 1 mL of 25 mM Hepes, pH 7.4 containing 0.9% NaCl (NaCl-HEPES). […] Ten microlitres of NaCl-HEPES containing 3 mM 2-deoxy-D-glucose and 0.1 μCi 2-deoxy-D-[1-^3H]glucose were then added. Following a 10 min incubation at 37° C., the medium was aspirated off and the wells rapidly washed three times with 1 mL of ice-cold 50 mM phosphate, pH 7.5 containing 150 mM NaCl (PBS) and 10 mM glucose. Two hundred microlitres of 3% Triton X-100 was then added to each well and left to incubate for a minimum of 10 minutes. One hundred microlitres of the solubilised cells was then added to 2.5 mL of liquid scintillation fluid and counted for radioactivity in a Beckman β-counter.
# insulin receptor [1] = molecular target: T1, insulin receptor (Homo sapiens, UniProt P06213); assay: 125I insulin binding, insulin receptors from a number of sources; set-up: host or cells: several: placental membranes, CHO.T11 cells, WGA purified receptors
# Procedure: Tubes were mixed and incubated for 16 h at 4° C. After the incubation, the tubes were placed on ice and 300 μL of a 1:5 suspension of 0.4% bovine-γ-globulin in 20% polyethyleneglycol 6000 (BDH chemicals) was added to each tube, mixed thoroughly and left to incubate for 30 min on ice. The tubes were then centrifuged (3,000 g) for 30 min at 4° C., the supernatant was aspirated off and the pellet counted for radioactivity. […] Inhibition constants were estimated by graphical analysis of displacement plots or calculated using the curve fitting programs EBDA and/or LIGAND.
# Target sequence in this assay (P06213 28-758 limits assumed): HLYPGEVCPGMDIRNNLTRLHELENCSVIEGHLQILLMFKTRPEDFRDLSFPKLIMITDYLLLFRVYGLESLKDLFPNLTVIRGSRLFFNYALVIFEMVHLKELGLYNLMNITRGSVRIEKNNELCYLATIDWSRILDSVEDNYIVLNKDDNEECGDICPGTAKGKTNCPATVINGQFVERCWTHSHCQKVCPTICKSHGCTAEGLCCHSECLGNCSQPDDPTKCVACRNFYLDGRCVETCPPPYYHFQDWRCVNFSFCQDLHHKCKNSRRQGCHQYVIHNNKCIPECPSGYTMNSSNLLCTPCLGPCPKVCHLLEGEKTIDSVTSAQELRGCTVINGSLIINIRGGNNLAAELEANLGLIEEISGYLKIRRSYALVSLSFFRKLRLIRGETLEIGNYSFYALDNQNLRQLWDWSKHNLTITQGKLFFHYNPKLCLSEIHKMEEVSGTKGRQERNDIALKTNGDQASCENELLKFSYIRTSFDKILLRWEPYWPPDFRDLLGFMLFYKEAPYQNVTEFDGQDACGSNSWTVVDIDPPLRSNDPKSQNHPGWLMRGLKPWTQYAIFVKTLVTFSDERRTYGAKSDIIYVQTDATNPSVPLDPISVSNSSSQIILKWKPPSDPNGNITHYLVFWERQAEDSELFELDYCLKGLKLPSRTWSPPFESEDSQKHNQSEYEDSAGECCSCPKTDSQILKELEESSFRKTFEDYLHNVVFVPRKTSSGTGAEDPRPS
# [2] = test system: streptozotocin induced diabetic mice; assay: Blood glucose levels in streptozotocin induced diabetic mice; type: in vivo, mouse
# Procedure: Six week old male CD-1 mice were injected intra peritoneally with a sterile solution of streptozotocin prepared in 100 mM citrate buffer, pH 4.65 at a dose of 200 mg/kg and an injection volume of 16.7 mL/kg. Mice were housed in a 12 h light/dark cycle and fed a normal chow diet ad libitum. Drinking water was supplemented with 5% sucrose for the first two days following streptozotocin injection before being replaced with tap water thereafter. After 4 days, blood was taken from the saphenous vein of the mice using the method of Hem, A et al. (26). Random non-fasting blood glucose levels were determined on venous blood using an esprit glucometer (Bayer). Mice with blood glucose levels of greater than 15 mmol/L were characterised as diabetic.
# Blood glucose levels of mice were determined, followed by an intra peritoneal dose of IM compound dissolved in diluent (1.6% glycerin, 0. 25% m-cresol, pH 6.75). Mice were then bled periodically and whole blood glucose levels were determine using a one-touch esprit glucometer (Bayer).
# IGF-1 receptors = molecular target: T2, IGF-1 receptors (Cricetulus griseus, UniProt A0A8C2N2R2); assay: 125I IGF-1 binding to WGA purified receptor preparations from CHO wild-type cells
# T2 construct: have high endogenous populations of IGF-1 receptors; endogenous in cells; host or cells: CHO wild-type cells, solubilised, WGA purified
# T2 sequence (A0A8C2N2R2 31-1371): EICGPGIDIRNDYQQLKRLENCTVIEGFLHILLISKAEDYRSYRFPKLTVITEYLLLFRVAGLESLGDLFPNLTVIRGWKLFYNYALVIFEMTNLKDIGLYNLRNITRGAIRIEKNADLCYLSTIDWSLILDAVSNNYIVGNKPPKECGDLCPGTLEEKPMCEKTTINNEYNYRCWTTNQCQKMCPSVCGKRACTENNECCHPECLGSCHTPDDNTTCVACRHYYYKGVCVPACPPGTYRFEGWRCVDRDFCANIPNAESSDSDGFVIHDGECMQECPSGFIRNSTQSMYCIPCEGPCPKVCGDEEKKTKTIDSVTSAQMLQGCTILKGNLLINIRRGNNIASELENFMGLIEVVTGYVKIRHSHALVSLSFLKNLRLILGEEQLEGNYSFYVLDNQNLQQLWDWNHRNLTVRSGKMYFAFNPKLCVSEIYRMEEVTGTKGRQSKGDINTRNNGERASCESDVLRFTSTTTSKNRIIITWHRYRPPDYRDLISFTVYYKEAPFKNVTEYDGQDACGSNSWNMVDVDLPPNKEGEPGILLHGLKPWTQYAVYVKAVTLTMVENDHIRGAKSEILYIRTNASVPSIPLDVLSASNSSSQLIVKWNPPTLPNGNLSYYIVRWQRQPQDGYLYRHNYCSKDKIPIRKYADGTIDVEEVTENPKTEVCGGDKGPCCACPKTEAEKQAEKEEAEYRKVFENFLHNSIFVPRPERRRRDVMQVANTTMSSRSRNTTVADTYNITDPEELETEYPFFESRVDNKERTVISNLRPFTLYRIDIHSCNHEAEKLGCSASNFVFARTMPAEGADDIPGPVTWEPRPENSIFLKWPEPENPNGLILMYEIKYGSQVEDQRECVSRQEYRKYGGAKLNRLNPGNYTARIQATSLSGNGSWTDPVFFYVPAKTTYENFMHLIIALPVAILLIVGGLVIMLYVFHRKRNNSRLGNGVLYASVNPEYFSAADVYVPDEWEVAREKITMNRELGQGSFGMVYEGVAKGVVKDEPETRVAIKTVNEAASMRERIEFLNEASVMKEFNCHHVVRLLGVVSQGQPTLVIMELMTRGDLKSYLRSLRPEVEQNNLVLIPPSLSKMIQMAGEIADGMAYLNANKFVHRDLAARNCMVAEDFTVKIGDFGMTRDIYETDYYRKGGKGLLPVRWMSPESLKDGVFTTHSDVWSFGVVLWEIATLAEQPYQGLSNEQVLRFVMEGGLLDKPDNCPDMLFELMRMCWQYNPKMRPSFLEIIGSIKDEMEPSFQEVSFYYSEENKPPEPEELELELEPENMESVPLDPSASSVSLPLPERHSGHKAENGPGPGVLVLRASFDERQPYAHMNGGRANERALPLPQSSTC
# insulin receptor [3] = molecular target: T1, insulin receptor; assay: Assays of insulin action (several biological assays, classification agonist/antagonist)
# Target sequence in this assay (P06213 with tags, fused parts or gaps): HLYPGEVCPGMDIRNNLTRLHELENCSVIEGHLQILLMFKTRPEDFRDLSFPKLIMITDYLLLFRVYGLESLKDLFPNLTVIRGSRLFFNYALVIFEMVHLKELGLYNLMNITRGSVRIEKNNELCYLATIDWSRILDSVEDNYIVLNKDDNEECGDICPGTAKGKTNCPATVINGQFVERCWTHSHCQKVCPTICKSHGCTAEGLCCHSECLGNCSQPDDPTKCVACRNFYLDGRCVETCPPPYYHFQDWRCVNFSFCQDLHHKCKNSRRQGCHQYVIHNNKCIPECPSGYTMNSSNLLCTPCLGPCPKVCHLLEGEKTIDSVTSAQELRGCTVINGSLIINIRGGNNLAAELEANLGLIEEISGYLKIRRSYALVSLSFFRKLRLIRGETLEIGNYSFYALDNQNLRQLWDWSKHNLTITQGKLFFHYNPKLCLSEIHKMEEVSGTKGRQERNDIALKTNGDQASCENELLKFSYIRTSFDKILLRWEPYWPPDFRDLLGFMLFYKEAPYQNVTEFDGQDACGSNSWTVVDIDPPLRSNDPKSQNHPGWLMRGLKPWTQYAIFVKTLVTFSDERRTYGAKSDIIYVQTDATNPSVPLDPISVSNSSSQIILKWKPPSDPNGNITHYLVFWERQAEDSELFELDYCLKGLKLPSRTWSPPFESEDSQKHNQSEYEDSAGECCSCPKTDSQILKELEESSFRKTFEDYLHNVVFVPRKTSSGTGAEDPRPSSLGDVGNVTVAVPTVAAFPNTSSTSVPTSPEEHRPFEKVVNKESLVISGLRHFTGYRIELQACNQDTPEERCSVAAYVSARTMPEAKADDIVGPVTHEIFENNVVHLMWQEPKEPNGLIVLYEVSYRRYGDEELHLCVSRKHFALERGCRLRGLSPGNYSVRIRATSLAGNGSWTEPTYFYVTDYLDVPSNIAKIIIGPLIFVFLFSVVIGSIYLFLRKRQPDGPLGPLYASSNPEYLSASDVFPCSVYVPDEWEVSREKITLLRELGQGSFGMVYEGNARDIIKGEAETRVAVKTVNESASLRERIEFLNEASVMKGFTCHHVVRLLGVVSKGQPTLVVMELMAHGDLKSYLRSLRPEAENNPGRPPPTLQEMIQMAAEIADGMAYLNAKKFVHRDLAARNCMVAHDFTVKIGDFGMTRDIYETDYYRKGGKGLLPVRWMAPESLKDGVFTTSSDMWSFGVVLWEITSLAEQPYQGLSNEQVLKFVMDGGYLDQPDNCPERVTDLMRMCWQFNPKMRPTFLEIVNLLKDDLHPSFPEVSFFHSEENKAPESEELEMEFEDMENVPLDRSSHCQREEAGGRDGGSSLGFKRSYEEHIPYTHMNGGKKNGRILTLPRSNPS
# IGF-1 receptor = IGF-1 receptor (Homo sapiens, UniProt P08069); assay: 125I IGF-1 binding to human placental plasma membranes (HPPM); set-up: from tissue; host or cells: human placenta, plasma membranes; settings: HPPM
# Chain of IGF-1 receptor (P08069 31-736 limits assumed): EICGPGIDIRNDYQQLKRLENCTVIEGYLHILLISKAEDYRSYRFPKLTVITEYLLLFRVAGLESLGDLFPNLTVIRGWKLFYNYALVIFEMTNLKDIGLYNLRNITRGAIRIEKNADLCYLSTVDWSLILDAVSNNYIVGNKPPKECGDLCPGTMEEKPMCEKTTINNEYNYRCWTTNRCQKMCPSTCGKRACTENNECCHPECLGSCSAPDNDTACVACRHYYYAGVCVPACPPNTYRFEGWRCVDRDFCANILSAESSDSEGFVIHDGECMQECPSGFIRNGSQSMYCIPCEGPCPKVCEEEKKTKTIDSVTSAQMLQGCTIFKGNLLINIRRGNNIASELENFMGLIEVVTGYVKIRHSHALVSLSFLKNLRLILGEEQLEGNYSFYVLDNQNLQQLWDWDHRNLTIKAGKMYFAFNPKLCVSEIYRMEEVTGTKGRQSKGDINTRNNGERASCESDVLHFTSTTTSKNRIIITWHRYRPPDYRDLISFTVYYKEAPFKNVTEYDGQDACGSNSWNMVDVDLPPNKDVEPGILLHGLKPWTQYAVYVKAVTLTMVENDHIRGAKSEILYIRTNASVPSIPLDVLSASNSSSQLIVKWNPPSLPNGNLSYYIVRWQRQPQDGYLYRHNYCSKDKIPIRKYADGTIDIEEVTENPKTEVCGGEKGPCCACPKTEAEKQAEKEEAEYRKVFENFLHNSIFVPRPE
# [4] = molecular target: insulin receptor β-subunit associated tyrosine kinase activity (Homo sapiens, UniProt P06213); assay: Protein tyrosine kinase (PTK) assay, 32P incorporation into FYF peptide; type: biochemical; settings: basal, absence of insulin
# Chain of insulin receptor β-subunit associated tyrosine kinase activity (P06213 28-758 limits assumed): as the sequence (P06213 28-758 limits assumed) above
# Procedure: Protein tyrosine kinase activity was determined using a modification of the method of N. Konstantopoulos (22).
# The reaction was allowed to proceed for 20 minutes at 30° C. before it was terminated by the addition of 12.5 μL of 7.5 M guanidine hydrochloride. An aliquot (10 μL) of the reaction mixture was then spotted onto a Whatman 81 phosphocellulose paper (15 mm×15 mm), washed three times (2 min per wash) in about 50 mL of 30% acetic acid, 0.05% orthophosphoric acid then finally, with one wash in about 200 mL of water. The papers were then rinsed briefly (15 sec) in 95% ethanol, dried, suspended in 2.5 mL of scintillation fluid (Beckman) and counted for radioactivity in a Beckman β-counter.
smiles,measurement,setting,value
"CCc1cc(-c2ccc(F)cc2)c(O)cc1OCCCOc1ccc2c(=O)c3cc(C(=O)O)ccc3oc2c1CCC(=O)O [IM 140, 3-[4-[7-carboxy-9-oxo-3-[3-[2-ethyl-4-(4-fluorophenyl)-5-hydroxyphenoxy]propoxy]-9H-xanthene]]propanoic acid]",effect of compound alone on glucose transport,"3T3L1 adipocyte cells; basal, no insulin",activates glucose transport in 3T3L1 cells
same,"efficacy compared with insulin, glucose transport","3T3L1 adipocyte cells; compound alone, relative to maximal dose of insulin (100 nM)",25-40%
same,EC50,"3T3L1 adipocyte cells; compound alone, read-out: apparent EC50, stimulation of glucose transport",20 to 30 µM
same,EC50,"3T3L1 adipocyte cells; read-out: apparent EC50, glucose transport with sub-maximal insulin, in presence of 2 nM insulin",8 µM
same,"glucose transport, % of maximal efficacy (100 nM insulin)","3T3L1 adipocyte cells; with 2 nM insulin, compound at 15 μM",80%
same,concentration of maximal 125I insulin binding,insulin receptor [1],80 to 100 µM
same,EC50,"insulin receptor [1]; read-out: apparent EC50 of increase in 125I insulin binding, low micromolar concentrations",10 to 20 µM
same,EC50 in vivo,[2],15 µmol/kg
same,"dose of peak activity, bi-phasic dose response in vivo",[2],20 to 40 µmol/kg
same,effect on blood glucose levels,"[2]; 100 μmol/kg, preliminary studies",does not decrease blood glucose levels
same,efficacy in lowering blood glucose relative to human insulin,"[2]; dose of 35 μmol/kg, intra peritoneal",about 25%
same,effect on 125I IGF-1 binding,IGF-1 receptors,does not compete for ^125I IGF-1 binding
same,classification of insulin action,insulin receptor [3],agonists of insulin action
same,effect on 125I IGF-1 binding,IGF-1 receptor,does not compete for ^125I IGF-1 binding to HPPM; also recorded: promotes ^125I IGF-1 binding to HPPM
same,effect of compound alone on 32P incorporation into FYF peptide,[4],promotes the ATP-dependent phosphorylation of endogenous FYF peptide in a dose dependent manner

# — patent publication US6933272B1 (priority 1998, dated 2005)
